Columns and labels:
[1] = from COc1cc(-c2cccc(O)c2)c2cc(C(O)(c3ccc(Cl)c(CO)c3)c3cncn3C)ccc2n1; ether bond; Cs2CO3; THF; 9.5 mM; 105.0 °C; 10.0 h; 2 steps
[2] = target: T1, Recombinant human farnesyl transferase (FTase) (Homo sapiens, UniProt P49356); assay: FTase fluorescence assay (farnesylation of dansyl-GCVLS peptide); assay type: biochemical; details: recombinant human FTase 2.5 nM, Dansyl-GCVLS 85 nM, FPP 30 nM, 30° C., 50 minutes
T1 construct: purchased Crelux (Martinsried, Germany)

[3] = target: T2, geranylgeranyl transferase type-1 (GGTase) (Homo sapiens, UniProt P53609); assay: GGTase fluorescence assay (dansyl-GCVLL peptide, GGPP); assay type: biochemical; details: GGTase 25 nM, Dansyl-GCVLL 10 μM, GGPP 10 μM, 30° C., 120 minutes
T2 construct: purchased Crelux (Martinsried, Germany)
Text: T24/83 cell line was purchased from the European Collection of Authenticated Cell Cultures (Salisbury, UK). Recombinant human farnesyl transferase (FTase) and geranylgeranyl transferase type-1 (GGTase) were obtained from Crelux (Martinsried, Germany). Dansyl labelled GCVLS peptide was purchased from Bachem (Torrance, CA), and Dansyl labelled GCVLL peptide was purchased from Bio Synthesis (Lewisville, TX). Farnesyl Pyrophosphate (FPP) and Geranylgeranyl pyrophosphate (GGPP) were purchased from Cayman (Ann Arbor, MI).
Geranylgeranyl transferase (GGTase) is a closely related enzyme to farnesyl transferase (FTase). The two enzymes share a common regulatory chain but have distinct individual enzymatic domains. GGTase catalyses the addition of an alternative prenylated side chain to some of the same proteins that may also be farnesylated. Thus, selective inhibitory activity against FTase relative to GGTase is a critical characteristic for FTase inhibitors.
The IC50 value of the compounds disclosed herein as inhibitors of Ftase and/or GGTase, was determined by measuring the concentration (provided in nM) necessary to achieve inhibition of enzyme activity by 50% (IC50). […] Compounds having a low IC50 value against FTase, for example an IC50 (FTase)<100 nM, such as an IC50 (FTase)<10 nM, are preferred. Compounds having a low IC50 value against FTase and a high IC50 value against GGTase, for example an IC50 (FTase)<100 nM, such as an IC50 (FTase)<10 nM, and an IC50 (GGTase)>100 nM, are potent and selective inhibitors of FTase, and are particularly preferred.
The inhibition activities of the compounds disclosed herein against Ftase and GGTase were measured in the respective fluorescence assays as follows:
For the GGTase assay, GGTase (25 nM), Dansyl labelled GCVLL peptide (10 μM), GGPP (10 μM) and inhibitor were mixed in assay buffer (50 mM Tris, pH 7.5, 10 mM magnesium chloride, 10 μM zinc chloride, 0.08% CHAPS, 5 mM dithiothreitol) and incubated in a total volume of 20 μL at 30° C. for 120 minutes.
For both the FTase assay and GGTase assay, fluorescence intensity was detected (excitation at 340 nm and emission at 486 nm) using EnVision (PerkinElmer; Waltham, MA), IC50 determinations were performed using a sigmoidal dose-response model with Xlfit software (IDBS, Inc.; Boston, MA), and tipifarnib was used as a positive control. All the assay plates for each assay passed the QC criteria (S/B, Z factor).

[4] = Metabolic stability in mouse liver microsomes; assay type: in vitro ADME; details: CD-1 mouse liver microsomes 0.5 mg protein/mL, test compound 1 μM, 37° C.; read-out: T1/2 in MLM
Protocol: (§1) The metabolic stability of the compounds disclosed herein was determined by measuring half-life (T1/2) of the compounds in the presence of mouse liver microsomes (MLM) or human liver microsomes (BILM).
(§2) Intermediate solution: 5 μL of compound and control stock solution (10 mM in dimethyl sulfoxide (DMSO)) were diluted with 495 μL of acetonitrile (ACN) (intermediate solution concentration: 100 μM, 99% ACN).
(§3) Working solution: 50 μL of compound and control intermediate solution (100 μM) were diluted with 450 μL of 100 mM potassium phosphate buffer (working solution concentration: 10 μM, 9.9% ACN).
(§4) Controls used in this assay: Testosterone, Diclofenac, and Propafenone.
(§5) Preparation Procedure: The appropriate amount of NADPH powder was weighed and diluted into a 10 mM MgCl2 solution (working solution concentration: 10 unit/mL; final concentration in reaction system: 1 unit/mL).
(§6) The appropriate concentrations of microsome working solutions were prepared in 100 mM potassium phosphate buffer.
(§7) Cold (4° C.) acetonitrile (CAN) containing 200 ng/mL tolbutamide and 200 ng/mL labetalol as internal standards (IS) was used as the stop solution.
(§8) Using an Apricot automation workstation, 10 μL/well of compound working solution were added to all 96-well reaction plates except the blank (T0, T5, T10, T20, T30, T60, and NCF60).
(§9) An Apricot automation workstation was used to add 80 μL/well of microsome solution to all reaction plates (Blank, T0, T5, T10, T20, T30, T60, and NCF60).
(§10) All reaction plates containing mixtures of compound and microsomes were pre-incubated at 37° C. for 10 minutes.
(§11) An Apricot automation workstation was used to add 10 μL/well of 100 mM potassium phosphate buffer to reaction plate NCF60.
(§12) Reaction plate NCF60 was incubated at 37° C. for 60 minutes.
(§13) After pre-incubation, an Apricot automation workstation was used to add 10 μL/well of NADPH regenerating system to every reaction plate except NCF60 (Blank, T0, T5, T10, T20, T30, and T60) to start the reaction. Final concentration of each component in incubation medium: Microsome (0.5 mg protein/mL); Test Compound (1 μM); Control Compound (1 μM); Acetonitrile (0.99%); DMSO (0.01%).
(§14) The reaction plates were incubated at 37° C. for 0 minute (T0, stop solution was added prior to microsome and NADPH solutions), 5 minutes (T5), 10 minutes (T10), 20 minutes (T20), 30 minutes (T30), 60 minutes (T60).
(§15) An Apricot automation workstation was used to add 300 μL/well of stop solution to each reaction plate at its appropriate end time point to terminate the reaction.
(§16) Each plate was sealed and shaken for 10 minutes.
(§17) After shaking, each plate was centrifuged at 4000 rpm and 4° C. for 20 minutes.
(§18) During centrifugation, an Apricot automation workstation was used to add 300 µL/well of HPLC grade water to eight new 96-well plates.
(§19) After centrifugation, an Apricot automation workstation was used to transfer 100 μL of supernatant from each reaction plate to its corresponding bioanaylsis plate.
(§20) Each bioanalysis plate was sealed and shaken for 10 minutes prior to LC-MS/MS analysis.
(§21) The equation of first order kinetics was used to calculate T1/2 and CLint(mic) (μL/min/mg).

[5] = test system: T24/83 cells; assay: T24/83 cell proliferation assay (CellTiter-Glo); assay type: cell-based; details: Homo sapiens, 96 h, 4 days
In short: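 HRAS-mutant T24/83 bladder carcinoma cells seeded at 100 cells/well and grown with inhibitor for 4 days at 37 °C; 0.7% DMSO negative control, 100 μM tipifarnib positive control. Viability by CellTiter-Glo luminescence.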

[6] = Metabolic stability in human liver microsomes; assay type: in vitro ADME; details: human liver microsomes 0.5 mg protein/mL, test compound 1 μM, 37° C.; read-out: T1/2 in HLM
Protocol: as §1, §2, §3, §4, §5, §6, §7, §8, §9, §10, §11, §12, §13, §14, §15, §16, §17, §18, §19, §20, §21

IC50 [2] [nM] | IC50 [3] [nM] | half-life at 1 μM [4] [min] | IC50 [5] [nM] | half-life at 1 μM [6] [min] | SMILES | ring closure, yield of all isomers [1] [%]
10 to 100 |  |  |  |  | COc1cc2c3cc(ccc3n1)C(O)(c1cncn1C)c1ccc(Cl)c(c1)COc1cccc-2c1 (stereo not drawn) [Compound 43, 4^4-chloro-2^2-methoxy-3-(1-methyl-1H-imidazol-5-yl)-6-oxa-2(4,6)-quinolina-1,4(1,3)-dibenzenacyclohexaphan-3-ol] | 82.9
≤ 10 | > 1000 | 5 to 15 | ≤ 50 | < 30 | Cn1cncc1[C@@]1(O)c2ccc(C#N)c(c2)CCc2cccc(c2)-c2cc(=O)n(C)c3ccc1cc23 [(R)-6, (R)-3-hydroxy-2^1-methyl-3-(1-methyl-1H-imidazol-5-yl)-2^2-oxo-2^1,2^2-dihydro-2(4,6)-quinolina-1,4(1,3)-dibenzenacyclohexaphane-4^4-carbonitrile] | 
≤ 10 | > 1000 | < 5 | ≤ 50 | < 30 | Cn1cncc1[C@@]1(N)c2ccc(Cl)c(c2)OCCc2cccc(c2)-c2cc(=O)n(C)c3ccc1cc23 [(S)-27, (S)-3-amino-4^4-chloro-2^1-methyl-3-(1-methyl-1H-imidazol-5-yl)-2^1,2^2-dihydro-5-oxa-2(4,6)-quinolina-1,4(1,3)-dibenzenacycloheptaphan-2^2-one] | 
≤ 10 | > 1000 | 5 to 15 | ≤ 50 | < 30 | Cn1cncc1[C@@]1(O)c2ccc(Cl)c(c2)CCc2cccc(c2)-c2cc(=O)n(C)c3ccc1cc23 [(S)-3, (S)-4^4-chloro-3-hydroxy-2^1-methyl-3-(1-methyl-1H-imidazol-5-yl)-2^1,2^2-dihydro-2(4,6)-quinolina-1,4(1,3)-dibenzenacyclohexaphan-2^2-one] | 
≤ 10 | > 1000 | > 15 | ≤ 50 | > 100 | Cn1cncc1[C@@]1(N)c2ccc(C#N)c(c2)COc2cccc(c2)-c2cc(C#N)nc3ccc1cc23 [(S)-58, (S)-3-amino-3-(1-methyl-1H-imidazol-5-yl)-6-oxa-2(4,6)-quinolina-1,4(1,3)-dibenzenacyclohexaphane-2^2 4^4-dicarbonitrile] | 
≤ 10 | > 1000 | 5 to 15 | ≤ 50 | 30 to 100 | Cn1cncc1[C@@]1(O)c2ccc(C#N)c(c2)OCc2cccc(c2)-c2cc(=O)n(C)c3ccc1cc23 [(S)-18, (S)-3-hydroxy-2^1-methyl-3-(1-methyl-1H-imidazol-5-yl)-2^2-oxo-2^1,2^2-dihydro-5-oxa-2(4,6)-quinolina-1,4(1,3)-dibenzenacyclohexaphane-4^4-carbonitrile] | 
≤ 10 | > 1000 | > 15 | ≤ 50 | > 100 | [2H]C([2H])([2H])n1c(=O)cc2c3cc(ccc31)[C@@](N)(c1cncn1C)c1ccc(C#N)c(c1)OCc1cccc-2c1 [(S)-20, (S)-3-amino-2^1-(methyl-d3)-3-(1-methyl-1H-imidazol-5-yl)-2^2-oxo-2^1,2^2-dihydro-5-oxa-2(4,6)-quinolina-1,4(1,3)-dibenzenacyclohexaphane-4^4-carbonitrile] | 
≤ 10 | > 1000 | < 5 | ≤ 50 | < 30 | Cn1cncc1[C@@]1(N)c2ccc(C#N)c(c2)OCCc2cccc(c2)-c2cc(=O)n(C)c3ccc1cc23 [(S)-37, (S)-3-amino-2^1-methyl-3-(1-methyl-1H-imidazol-5-yl)-2^2-oxo-2^1,2^2-dihydro-5-oxa-2(4,6)-quinolina-1,4(1,3)-dibenzenacycloheptaphane-4^4-carbonitrile] | 
≤ 10 | > 1000 | 5 to 15 | ≤ 50 | > 100 | Cn1cncc1[C@@]1(N)c2ccc(Cl)c(c2)COc2cccc(c2)-c2cc(=O)n(C)c3ccc1cc23 [(S)-46, (S)-3-amino-4^4-chloro-2^1-methyl-3-(1-methyl-1H-imidazol-5-yl)-2^1,2^2-dihydro-6-oxa-2(4,6)-quinolina-1,4(1,3)-dibenzenacyclohexaphan-2^2-one] | 
≤ 10 | > 1000 | 5 to 15 | 50 to 500 | < 30 | [2H]C([2H])([2H])n1c(=O)cc2c3cc(ccc31)[C@@](N)(c1nncn1C)c1ccc(Cl)c(c1)OCCc1cccc-2c1 [(S)-34, (S)-3-amino-4^4-chloro-2^1-(methyl-d3)-3-(4-methyl-4H-1,2,4-triazol-3-yl)-2^1,2^2-dihydro-5-oxa-2(4,6)-quinolina-1,4(1,3)-dibenzenacycloheptaphan-2^2-one] | 
≤ 10 | > 1000 | < 5 | ≤ 50 | < 30 | Cn1cncc1[C@@]1(N)c2ccc(Cl)c(c2)CCc2cccc(c2)-c2cc(=O)n(C)c3ccc1cc23 [(S)-4, (S)-3-amino-4^4-chloro-2^1-methyl-3-(1-methyl-1H-imidazol-5-yl)-2^1,2^2-dihydro-2(4,6)-quinolina-1,4(1,3)-dibenzenacyclohexaphan-2^2-one] | 
≤ 10 | > 1000 | < 5 | 50 to 500 | 30 to 100 | Cn1cncc1[C@@]1(N)c2ccc(Cl)c(c2)OCc2cccc(c2)-c2cc(=O)n(C)c3ccc1cc23 [(S)-15, (S)-3-amino-4^4-chloro-2^1-methyl-3-(1-methyl-1H-imidazol-5-yl)-2^1,2^2-dihydro-5-oxa-2(4,6)-quinolina-1,4(1,3)-dibenzenacyclohexaphan-2^2-one] | 
